Source: PubChem BioAssay AID179 (DTP/NCI, 2004)
Several values for one entry are separate records, joined by “and”; a condition that tells them apart may be missing. Equal entries are not always repeated. Activity calls are given as the source filed them.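 How the source made its calls: active means compounds giving half or more protection of infected cells from virus-caused growth loss, again on retest; inactive means the rest.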

System: CEM cells HIV-1 protection, formazan growth assay
Assay: NCI AIDS Antiviral Assay
Conditions: for IC50: measured here: growth of uninfected CEM cells
Procedure, shortened: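 Protection of CEM cells against HIV-1 measured as cell growth via soluble formazan read-out, with five concentrations tested on both infected and uninfected cells; failure to protect may reflect toxicity.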

Row | Compound | EC50 | IC50 | outcome
1 | COc1cc(OC)c2nc(C)c(CCCl)c(Cl)c2c1 | > 200 µM | > 200 µM | –
2 | O=C(O)CC12C3C4C5C3C1C5C42 (stereo not given) | > 575 µM | > 575 µM | –
3 | N#Cc1cc([N+](=O)[O-])ccc1NC(=O)C(=O)Nc1n[nH]c(N)n1 | > 794 µM | 692 µM | –
4 | COP(=O)(OC)C(=O)c1ccccc1 | > 1150 µM | > 1150 µM | –
5 | OCCN(CCO)c1ccc2c(-c3ccccc3)cc(N(CCO)CCO)nc2n1 | > 200 µM | 120 µM | –
6 | Oc1ccccc1C=NCc1ccco1 | – | – | inactive
7 | CCCc1cc(=O)oc2c3c(cc(OC(C)CC)c12)O[C@H](C)[C@@H](C)[C@@H]3O (stereo not given in full) | 3.63 µM | 37.2 µM | –
8 | CCC(=O)c1c(CC)ccc2ccccc12 | > 200 µM | 105 µM | –
9 | O=C1c2ccccc2C(=O)c2c(/C=C\N3CCCCC3)ccnc21 | > 8.51 µM | > 8.51 µM | –
10 | Cc1cc([N+](=O)[O-])c2c(c1)P(=O)(O)c1cc(C)cc([N+](=O)[O-])c1O2 | > 200 µM | > 200 µM | –
11 | C#CC1(O)CCC2C3CCc4cc(Oc5nc(F)nc(-c6c7ccccc7c7sc8ccccc8n67)n5)ccc4C3CC[C@@]21C (stereo not given in full) | > 200 µM | 115 µM | –
12 | CCOC(=O)CCSS(=O)(=O)c1ccccc1 | > 200 µM | 35.5 µM | –
13 | Cc1cc2cc(O)c3c(=O)c4c(O)cccc4c(=O)c3c2c(=O)c1=O | > 21.4 µM | 12 µM | –
14 | CC(=O)Nc1ccc(Sc2nnc(NC(C)=O)s2)cc1 | > 32.4 µM | > 32.4 µM | –
15 | CC(=O)C(C)C(=O)N1C(=O)N(C)C2(C)N(C)C(=O)NC12C (stereo not given) | > 200 µM | > 200 µM | –
16 | CCc1n[nH]c(=O)n1N1C(=O)C2CCCCC2C1=O (stereo not given) | > 200 µM | > 200 µM | –
17 | O=C1c2ccccc2C(=O)c2c(NCCCNCCO)ccc(NCCCNCCO)c21 | – | – | inactive
18 | Cc1ccc(S(=O)(=O)NCCN(CCNS(=O)(=O)c2ccc(C)cc2)S(=O)(=O)c2ccc(C)cc2)cc1 | > 200 µM | > 200 µM | –
19 | CN1C(=O)C23SSC1(C)C(=O)N2c1ccccc1C3(C)C (stereo not given) | > 200 µM | 7.94 µM | –
20 | CC[C@H]1C[C@@H](O)[C@@H]2[C@H](O)[C@H](O)CN2C1 | > 200 µM | > 200 µM | –
21 | CCCc1cc(=O)oc2c3c(cc(OC(C)COC)c12)O[C@H](C)[C@@H](C)C3=O (stereo not given in full) | > 77.6 µM | 13.8 µM | –

Row | Compound | EC50 | IC50 | outcome
22 | CC(=O)c1cccc(NC(=O)Nc2ncccc2C)c1 | 182 µM | > 200 µM | –
23 | CC1(C)CC(C#Cc2ccccc2)CC(C)(C)N1O | > 200 µM | 34.7 µM | –
24 | COC(=O)C1=C(O)C(C(=O)OC)C2CC(=O)CC1C2(C)C (stereo not given) | > 200 µM | > 200 µM | –
25 | CCOC(=O)CC(Sc1ccccc1)Sc1ccccc1 | – | – | inactive
26 | CCOC(=O)/C(=C\c1ccc(C)cc1)[Se]c1ccccc1 | > 5.75 µM | > 5.75 µM | –
27 | C(#C[PH+](c1ccccc1)c1ccccc1)c1ccccc1.C(#C[PH+](c1ccccc1)c1ccccc1)c1ccccc1.C(#C[PH+](c1ccccc1)c1ccccc1)c1ccccc1.[C-]#[O+].[C-]#[O+].[C-]#[O+].[W] | > 0.676 µM | > 0.676 µM | –
28 | N#CC1(c2ccccc2)CCNCC1 | > 1120 µM | 562 µM | –
29 | COC(=O)C1=C(C(=O)OC)C2OC1C1C2C2(C)C(C)=C(C)C1(C)S2=O (stereo not given) | > 200 µM | 2.82 µM | –
30 | BrCc1cccc(C[P+](c2ccccc2)(c2ccccc2)c2ccccc2)c1 | > 200 µM | 1.17 µM | –
31 | CC(NC(CC12CC3CC(CC(C3)C1)C2)C(N)=O)c1ccccc1 (stereo not given) | > 200 µM | 34.7 µM | –
32 | CCOc1ccc(C2=NN(CC)C(=O)C(C3C(=O)N(c4ccccc4)N=C3C)C2)cc1 (stereo not given) | > 120 µM | > 120 µM | –
33 | N#Cc1c(-c2ccccc2)cc(-c2ccccc2)n(C2OC(CO)C(O)C(O)C2O)c1=O (stereo not given) | > 219 µM | 214 µM and > 60.3 µM | –
34 | O=C(c1cccs1)N(C(=O)N1CCCCC1)c1ccccc1 | > 200 µM | 112 µM | –
35 | CO[C@@H]1C[C@H]2[C@@H]3CC[C@H]([C@@H](C)CO)[C@@]3(C)CC[C@@H]2[C@@]2(C)CC[C@H]3C[C@]312 | > 200 µM | 102 µM | –
36 | CCc1c(Cc2cc(C)cc(C)c2)n(COCCCCOC(=O)c2ccccc2)c(=O)[nH]c1=O | 0.00692 µM | 2 µM | –
37 | COc1cccc(/C(CC(O)(C(F)(F)F)C(F)(F)F)=N\N(C)C)c1 | > 200 µM | > 200 µM | –
38 | COc1ccc(OCC(=O)O)c2c1CCC(C(C)C)C2=O (stereo not given) | – | – | inactive
39 | COC(=O)c1cc2c(=O)n(C)c(=O)n(C)c2[nH]c1=O | > 200 µM | > 200 µM | –
40 | COc1cc2nncc(Sc3cnnc4ccccc34)c2cc1OC | > 61.7 µM | 7.59 µM | –
41 | O=C1Sc2ccccc2C(=O)N2CCSC12 (stereo not given) | 126 µM | > 200 µM | –
42 | O=C1NC(=O)N2CC(CI)OC2C1c1ccccc1 (stereo not given) | > 97.7 µM | > 97.7 µM | –
